Source: PubChem BioAssay (NCI)
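The compound was tested at five concentrations on cells cultured in 96-well plates, with a 48-hour exposure period. GI50 is the concentration that inhibits growth by half. TGI denotes the concentration required for complete inhibition of growth.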

What was measured:
Experiment in all cases: inhibition of tumour cell growth, NCI panel, 48 h
SF-539 CNS = tested on: SF-539 CNS
SK-MEL-5 melanoma = tested on: SK-MEL-5 melanoma
UACC-257 melanoma = tested on: UACC-257 melanoma
HCT-116 colon = tested on: HCT-116 colon
RXF 393 renal = tested on: RXF 393 renal
HOP-62 NSCLC = tested on: HOP-62 NSCLC
CAKI-1 renal = tested on: CAKI-1 renal
MCF7 breast = tested on: MCF7 breast
LOX IMVI melanoma = tested on: LOX IMVI melanoma
MDA-MB-435 = tested on: MDA-MB-435

Row | Compound | TGI (SF-539 CNS) [µM] | TGI (SK-MEL-5 melanoma) [µM] | TGI (UACC-257 melanoma) [µM] | TGI (HCT-116 colon) [µM] | TGI (RXF 393 renal) [µM] | TGI (HOP-62 NSCLC) [µM] | TGI (CAKI-1 renal) [µM] | TGI (MCF7 breast) [µM] | TGI (LOX IMVI melanoma) [µM] | TGI (MDA-MB-435) [µM] | GI50 (MCF7 breast) [µM] | GI50 (SK-MEL-5 melanoma) [µM] | GI50 (RXF 393 renal) [µM] | GI50 (LOX IMVI melanoma) [µM] | GI50 (MDA-MB-435) [µM] | GI50 (CAKI-1 renal) [µM] | GI50 (UACC-257 melanoma) [µM] | GI50 (HCT-116 colon) [µM] | GI50 (HOP-62 NSCLC) [µM]
1 | Cc1nc(-n2nc(-c3ccccc3)cc2-c2ccccc2)sc1C(/C=C/c1ccc([N+](=O)[O-])cc1)=N/NC(N)=S | > 100 | > 100 | > 100 | 43.4 | > 100 | 65.7 | > 100 | – | – | – | – | – | – | – | – | – | – | – | –
2 | CCOC(=O)c1cc([N+](=O)[O-])cc([N+](=O)[O-])c1Sc1ncnc2nc[nH]c12 | 15.7 | 27.7 | – | 7.69 | 3.29 | 24.5 | 6.59 | 4.08 | 4.16 | 4.27 | – | – | – | – | – | – | – | – | –
3 | Nc1ccn(CCCC(c2ccccc2)P(=O)(O)O)c(=O)n1 (stereo not drawn) | > 100 | > 100 | > 100 | > 100 | – | > 100 | > 100 | – | > 100 | – | – | – | – | – | – | – | – | – | –
4 | COC(=O)C1=C(C)NC2=C(C(=O)c3ccccc32)C1c1cn[nH]c1-c1ccccc1 (stereo not drawn) | > 100 | > 100 | > 100 | > 100 | > 100 | > 100 | > 100 | > 100 | – | > 100 | – | – | – | – | – | – | – | – | –
5 | COC(=O)CC1NC(=O)C1C(C)(OC)OC (stereo not drawn) | > 100 | > 100 | > 100 | > 100 | > 100 | > 100 | – | – | > 100 | – | – | – | – | – | – | – | – | – | –
6 | O=C(CC(=O)N1N=C(c2ccccc2)C(N=Nc2ccccc2Cl)C1=O)Nc1ccccc1Cl (stereo not drawn) | > 100 | 52.5 | > 100 | > 100 | – | > 100 | > 100 | – | > 100 | – | – | – | – | – | – | – | – | – | –
7 | CN(C)CCNC(=O)c1cccc2[nH]c(-c3ccc(Cl)cc3)nc12 | 16.9 | 16.7 | 20.4 | 13.8 | 21.3 | 22.5 | 12.8 | 15.8 | 13.8 | – | – | – | – | – | – | – | – | – | –
8 | CCOC(=O)C1=C(O)c2ccc(OC)cc2C(=O)C1=O | > 100 | > 100 | > 100 | > 100 | > 100 | > 100 | > 100 | – | > 100 | – | – | – | – | – | – | – | – | – | –
9 | N/C(=N/N=C/c1cccc(F)c1)NO | 70 | 32.4 | > 100 | > 100 | 78.4 | 82.1 | 91.7 | – | 97.7 | – | – | – | – | – | – | – | – | – | –
10 | Cc1cc(C)c(C(=O)/C(=C/c2ccccc2)c2ccccc2)c(C)c1 | > 100 | > 100 | > 100 | > 100 | > 100 | > 100 | > 100 | – | – | – | – | – | – | – | – | – | – | – | –
11 | CCSc1[nH]c(NC(=NC(C)C)NC(=O)c2ccccc2)c(C(N)=O)c1C(N)=O | – | > 10 | > 10 | – | > 10 | – | > 10 | > 10 | > 10 | > 10 | – | – | – | – | – | – | – | – | –
12 | CC(C)OC(=O)c1cccnc1/C=N/O | > 100 | > 100 | > 100 | > 100 | – | > 100 | > 100 | – | > 100 | – | – | – | – | – | – | – | – | – | –
13 | COc1cc(CC(=O)c2cc3c(cc2-c2ccccc2)OCO3)cc(OC)c1OC | > 100 | 27.1 | > 100 | > 100 | > 100 | > 100 | – | – | > 100 | – | – | – | – | – | – | – | – | – | –
14 | O=C1C(=O)N(C23CC4CC(CC(C4)C2)C3)C(=S)N1c1ccccc1 | > 100 | > 100 | > 100 | > 100 | > 100 | > 100 | > 100 | – | > 100 | > 100 | – | – | – | – | – | – | – | – | –
15 | CNC(=O)c1cc(Oc2cccc3nc(NC(=O)Nc4ccc(F)cc4F)ccc23)ccn1 | – | > 50 | – | – | 2.99 | – | > 50 | > 50 | > 50 | > 50 | 1.66 | 1.02 | 1.24 | 1.68 | 1.5 | 1.61 | – | – | –
16 | Brc1ccc(C[N+]23CN4CN(CN(C4)C2)C3)cc1 | > 100 | – | > 100 | 79.8 | 34.6 | > 100 | – | – | 48 | – | – | – | – | – | – | – | – | – | –
17 | O=C(CBr)NCCc1c[nH]c2ccccc12 | 3.52 | 2.46 | 8.54 | 3.15 | 2.41 | – | 1.91 | 4.72 | 2.79 | 3.34 | – | – | – | – | – | – | – | – | –
18 | O=c1cc(NNc2cccc(F)c2)[nH]c(=S)[nH]1 | > 100 | > 100 | > 100 | > 100 | – | > 100 | – | > 100 | > 100 | > 100 | – | – | – | – | – | – | – | – | –
19 | COc1ccc(N2C(=O)C3C=CC(n4[nH]c(=O)n(Cc5ccccc5)c4=O)CC3C2=O)cc1 (stereo not drawn) | > 100 | > 100 | > 100 | > 100 | > 100 | > 100 | > 100 | – | > 100 | – | – | – | – | – | – | – | – | – | –
20 | O=C(NCCC1CN(S(=O)(=O)C(F)(F)F)c2ccccc21)OCc1ccccc1 (stereo not drawn) | – | > 100 | > 100 | > 100 | > 100 | > 100 | > 100 | > 100 | – | > 100 | – | – | – | – | – | – | – | – | –
21 | CCOC(=O)C1=C(C)N(c2ccc(Cl)cc2)C2(O)C=CC(Nc3ccc(Cl)cc3)=C3C(=O)N(c4ccccc4)C(=O)C312 (stereo not drawn) | 18.3 | 11 | 39.2 | – | – | 14.9 | 13.5 | 9.3 | 4.36 | 5.29 | – | – | – | – | – | – | – | – | –
22 | O=C(CSc1nnc(-c2ccc(N=Cc3ccc(Cl)cc3)cc2)o1)Nc1cccc([N+](=O)[O-])c1 | – | > 100 | > 100 | > 100 | > 100 | > 100 | – | – | > 100 | – | – | – | – | – | – | – | – | – | –
23 | COc1c(C)c(C/C=C(\C)CCCCO)c(OC)c2ccccc12 | > 100 | 39.5 | > 100 | 88.2 | > 100 | – | 94.9 | > 100 | 37.6 | 99.2 | – | – | – | – | – | – | – | – | –
24 | COC1=CC(c2ccc[nH]2)=N/C1=C\c1[nH]c(C)c(C)c1CCC(=O)OCc1ccccc1 | – | – | 2.97 | 1.11 | 1.83 | 1.84 | 2.08 | 2.19 | 0.705 | 1.64 | 0.293 | – | 0.496 | 0.217 | 0.44 | 0.3 | 1.27 | 0.065 | 0.355
